“And” between values parts separate entries of the source, which are not always exact repeats. Identical values can stand only once.
Experiments:
SNI neuropathic pain [1] = system: SNI neuropathic pain; set-up: species or system rats; conditions: rat, in vivo
SNI neuropathic pain [2] = system: SNI neuropathic pain; set-up: species or system rats; conditions: rat, in vivo; remark: listed apart in the source

SMILES: NCC1(CC(=O)O)CCCCC1 [Gabapentin]
- mean relative analgesic rate of Von Frey Hairs (SNI neuropathic pain [1]): 29.71% and 36.26%
- mean relative analgesic rate of foot weight bearing (SNI neuropathic pain [2]): 20.85% and 17.55% and 14.07%
